Patent publication US20240158393A1, “PYRIDONE COMPOUNDS AND METHODS OF USE” (Exelixis, Inc., priority 2021, published 2024)

Legend:
Human Mer = biological target: T1, Human Mer (Homo sapiens, UniProt Q12866); assay: Human Mer kinase assay (33P radiometric / HTRF KinEase); format: biochemical; conditions: protocols of Examples C-1 and/or C-2
T1 construct: Human Mer (residues R557-E882 with H628Q and R794A, 0.7 nM); purchased Eurofins Pharma Discovery Services UK Limited (KinaseProfiler service)
T1 sequence (Q12866 557-882 limits assumed): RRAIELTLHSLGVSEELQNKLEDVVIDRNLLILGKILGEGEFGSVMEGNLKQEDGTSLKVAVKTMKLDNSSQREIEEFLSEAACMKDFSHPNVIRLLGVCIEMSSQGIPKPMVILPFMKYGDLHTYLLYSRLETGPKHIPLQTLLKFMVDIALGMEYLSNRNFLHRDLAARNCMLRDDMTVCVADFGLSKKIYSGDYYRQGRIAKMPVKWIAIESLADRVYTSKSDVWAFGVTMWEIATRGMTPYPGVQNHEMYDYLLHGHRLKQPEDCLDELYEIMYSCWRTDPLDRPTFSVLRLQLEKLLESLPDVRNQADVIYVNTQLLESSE
Protocol: (§1) Kinase activity and compound inhibition were investigated using the ^33P-Phosphoryl transfer radiometric kinase assay, performed using the KinaseProfiler™ service of Eurofins Pharma Discovery Services UK Limited. Dose-response experiments were performed using nine compound concentrations in a 96-well microtiter plate. For each assay, all compounds were prepared to a 50× final assay concentration (50 μM) in 100% DMSO, then diluted in a half-log series, with the final top concentration at 1 μM. This working stock of the compound was added to the assay well as the first component in the reaction, followed by the remaining components as detailed in the following assay protocols below. The positive control wells (100% kinase activity) contain all components of the reaction including 2% DMSO (control for solvent effects), except the compound of interest. Blank wells contain all components of the reaction, with the reference inhibitor, staurosporine. This reference compound was used to abolish kinase activity and generated the 0% kinase activity base-line. IC50 values were calculated by nonlinear regression analysis using the sigmoidal dose-response (variable slope) curve fit on XLFit version 5.3 (ID Business Solutions).
(§2) Kinase activity and compound inhibition were also investigated using the HTRF® KinEase assay (Cisbio Cat #62TKOPEB) per manufacturer's instructions. In short, compounds were delivered in 300 nL volumes at 10 different concentrations in DMSO (3% final) to empty 384-well assay plates (Corning cat #3824). A mixture of enzyme, 1 μM biotinylated peptide substrate, and buffer in 10 μL volume was added. The assay was started upon the addition of ATP (at Km). The 10 μL reaction was incubated at room temperature. The reaction was stopped upon the addition of detection buffer containing streptavidin-XL665 (5 μL) and TK antibody-Eu3+(5 μL). After a 60 min incubation at room temperature, the fluorescence at 665 nm and 620 nm was read on an Envision microplate reader (Perkin Elmer).
(§3) Kinase activity normalized to DMSO (100% activity) and reference compound at 1 μM and (0% activity) was calculated using the fluorescence ratio […]. IC50 values were calculated by nonlinear regression analysis using a 4-parameter logistic curve fit in ActivityBase XE (IDBS).
Example C-1: Human Mer (residues R557-E882 with H628Q and R794A, 0.7 nM) was incubated with 8 mM MOPS pH 7.0, 0.2 mM EDTA, 30 mM NaCl, 250 μM GGMEDIYFEFMGGKKK (SEQ ID NO: 2), 10 mM magnesium acetate, and 10 μM [γ-^33P-ATP]. The reaction was initiated by the addition of the Mg/ATP mix. After incubation for 40 minutes at room temperature, the reaction was stopped by the addition of phosphoric acid to a concentration of 0.5%. A reaction aliquot of 10 μL was then spotted onto a P30 filtermat and washed four times for 4 minutes in 0.425% phosphoric acid and once in methanol prior to drying and scintillation counting. Incorporated ^33P was measured using the Wallac Microbeta scintillation counter (Perkin Elmer).
Example C-2: Human MER (residues 528-999; CarnaBio, 1 ng/well) was also incubated with enzymatic buffer (Cisbio) supplemented with 5 mM MgCl2 and 1 mM DTT. The mixture was added to the pre-plated compounds. The reaction was initiated upon addition of ATP at Km (40 μM). The reaction was incubated at room temperature for 60 min and stopped upon the addition of SA-XL665 and TK-antibody both diluted in EDTA-containing kinase detection buffer (Cisbio). The kinase activity was calculated as stated above and the IC50 values were reported.

Human Axl = biological target: T2, Human Axl (Homo sapiens, UniProt P30530); assay: Human AXL kinase assay (33P radiometric / HTRF KinEase); format: biochemical; conditions: protocols of Examples A-1 and/or A-2
T2 construct: Human AXL (residues 464-885)
T2 sequence (P30530 1-894 Q764R): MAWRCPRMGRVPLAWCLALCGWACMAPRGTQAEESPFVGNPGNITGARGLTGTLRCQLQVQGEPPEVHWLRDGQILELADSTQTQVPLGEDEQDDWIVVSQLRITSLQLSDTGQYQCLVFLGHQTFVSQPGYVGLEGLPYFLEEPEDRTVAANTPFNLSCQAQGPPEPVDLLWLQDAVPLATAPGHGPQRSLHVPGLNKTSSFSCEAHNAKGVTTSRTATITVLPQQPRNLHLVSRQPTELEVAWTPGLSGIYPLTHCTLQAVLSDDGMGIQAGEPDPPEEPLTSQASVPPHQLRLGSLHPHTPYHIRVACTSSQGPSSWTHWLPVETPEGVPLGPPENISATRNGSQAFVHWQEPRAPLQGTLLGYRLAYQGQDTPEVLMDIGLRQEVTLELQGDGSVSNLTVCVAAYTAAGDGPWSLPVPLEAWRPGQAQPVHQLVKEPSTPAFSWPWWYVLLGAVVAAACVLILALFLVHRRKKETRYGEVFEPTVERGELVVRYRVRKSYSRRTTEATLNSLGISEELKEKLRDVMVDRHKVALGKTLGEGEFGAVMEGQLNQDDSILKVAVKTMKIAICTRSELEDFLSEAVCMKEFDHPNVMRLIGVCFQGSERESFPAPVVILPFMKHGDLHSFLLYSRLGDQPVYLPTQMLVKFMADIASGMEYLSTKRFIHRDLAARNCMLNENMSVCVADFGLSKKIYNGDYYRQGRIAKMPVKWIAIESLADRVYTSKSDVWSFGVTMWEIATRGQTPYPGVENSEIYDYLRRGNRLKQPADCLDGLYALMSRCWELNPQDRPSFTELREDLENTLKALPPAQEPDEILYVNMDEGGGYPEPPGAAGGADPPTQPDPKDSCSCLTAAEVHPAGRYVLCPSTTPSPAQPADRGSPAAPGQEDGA
Protocol: as §1, §2, §3
Example A-1: Human Axl (residues H473-A894 with Q764R, 161 nM) was incubated with 8 mM MOPS pH 7.0, 0.2 mM EDTA, 250 μM KKSRGDYMTMQIG (SEQ ID NO:1), 10 mM magnesium acetate and 10 μM [γ-^33P-ATP]. The reaction was initiated by the addition of the Mg/ATP mix. After incubation for 40 minutes at room temperature, the reaction was stopped by the addition of phosphoric acid to a concentration of 0.5%. A reaction aliquot of 10 μL was then spotted onto a P30 filtermat and washed four times for 4 minutes in 0.425% phosphoric acid and once in methanol prior to drying and scintillation counting. Incorporated ^33P was measured using the Wallac Microbeta scintillation counter (Perkin Elmer).
Example A-2: Human AXL (residues 464-885; CarnaBio, 1 ng/well) was also incubated with enzymatic buffer (Cisbio) supplemented with 5 mM MgCl2, 1 mM DTT, and Supplemental Enzymatic Buffer (SEB; Cisbio). The mixture was added to the pre-plated compounds. The reaction was initiated upon addition of ATP at Km (1.0 μM). The reaction was incubated at room temperature for 50 min and stopped upon the addition of SA-XL665 and TK-antibody both diluted in EDTA-containing kinase detection buffer (Cisbio). The kinase activity was calculated as stated above and the IC50 values were reported.

COCCOc1cnc2c(Oc3ccc(NC(=O)c4c(C)nc(C)c(C5=CCCC5)c4O)cc3F)ccnc2c1 [Compound 101, 5-(Cyclopenten-1-yl)-N-[3-fluoro-4-[[7-(2-methoxyethoxy)-1,5-naphthyridin-4-yl]oxy]phenyl]-4-hydroxy-2,6-dimethylpyridine-3-carboxamide]
IC50 (Human Mer): ≤ 100 nM
IC50 (Human Axl): ≤ 100 nM
